Measured values reported in PubChem BioAssay AID256 (DTP/NCI, 2004).
“And” between values parts separate entries of the source, which are not always exact repeats. Equal values may be shown once. Inconclusive results and toxic doses are left out. How the source made its calls: active means survival T/C of 150% or more; inactive means T/C below 125% in these data.

Test system: CD2F1 mice, L1210 leukemia ip, survival T/C
Assay: NCI In Vivo Anticancer Drug Screen. Data for tumor model L1210 Leukemia (intraperitoneal) in CD2F1 (CDF1) mice
Details: higher = longer survival
Outline: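 Each value reflects a quotient of treated over vehicle control outcomes in mice with a transplanted tumor.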

[1] = endpoint: mean survival time, dose: 100.0 mg/kg/injection, schedule: Q01DX009 (ip), vehicle: saline with Tween-80
[2] = endpoint: mean survival time, dose: 100.0 mg/kg/injection, schedule: Q04DX003 (ip), vehicle: saline with Tween-80
[3] = endpoint: mean survival time, dose: 200.0 mg/kg/injection, schedule: Q01DX009 (ip), vehicle: saline with Tween-80
[4] = endpoint: mean survival time, dose: 50.0 mg/kg/injection, schedule: Q01DX009 (ip), vehicle: saline with Tween-80

Measured: T/C

O=C(COc1ccc(Cl)cc1)C1CSc2ccc(Cl)cc21 (stereo not drawn)
inactive: [1] 88 % of control | [2] 95 % of control | [3] 91 % of control | endpoint: mean survival time, dose: 200.0 mg/kg/injection, schedule: Q04DX003 (ip), vehicle: saline with Tween-80 92 % of control | endpoint: mean survival time, dose: 400.0 mg/kg/injection, schedule: Q01DX009 (ip), vehicle: saline with Tween-80 89 % of control | endpoint: mean survival time, dose: 400.0 mg/kg/injection, schedule: Q04DX003 (ip), vehicle: saline with Tween-80 88 % of control

CCCCCCCCCCCCCCOS(=O)(=O)O
inactive: endpoint: mean survival time, dose: 37.5 mg/kg/injection, schedule: Q01DX009 (ip), vehicle: saline 93 % of control | endpoint: mean survival time, dose: 75.0 mg/kg/injection, schedule: Q01DX009 (ip), vehicle: saline 93 % of control

c1ccc(CCc2ccnc3ccccc23)cc1
inactive: [4] 94 % of control | [1] 98 % of control | [3] 100 % of control

Cn1c(=O)c2c(nc(N3CCOCC3)n2CCCNCC(O)c2ccc(O)cc2)n(C)c1=O (stereo not drawn)
inactive: endpoint: mean survival time, dose: 12.5 mg/kg/injection, schedule: Q01DX005 (ip), vehicle: water 102 % of control | endpoint: mean survival time, dose: 25.0 mg/kg/injection, schedule: Q01DX005 (ip), vehicle: water 104 % of control | endpoint: mean survival time, dose: 50.0 mg/kg/injection, schedule: Q01DX005 (ip), vehicle: water 100 % of control | endpoint: mean survival time, dose: 100.0 mg/kg/injection, schedule: Q01DX005 (ip), vehicle: water 98 % of control | endpoint: mean survival time, dose: 200.0 mg/kg/injection, schedule: Q01DX005 (ip), vehicle: water 104 % of control

CNNCc1ccc(/C=N/NC(N)=S)cc1
inactive: endpoint: mean survival time, dose: 6.25 mg/kg/injection, schedule: Q01DX009 (ip), vehicle: water 96 % of control | endpoint: mean survival time, dose: 12.5 mg/kg/injection, schedule: Q01DX009 (ip), vehicle: water 98 % of control | endpoint: mean survival time, dose: 25.0 mg/kg/injection, schedule: Q01DX009 (ip), vehicle: water 100 % of control | endpoint: mean survival time, dose: 50.0 mg/kg/injection, schedule: Q01DX009 (ip), vehicle: water 86 % of control and 96 % of control | endpoint: mean survival time, dose: 100.0 mg/kg/injection, schedule: Q01DX009 (ip), vehicle: water 86 % of control and 96 % of control

Cn1c(=O)c2[nH]c(NCc3ccccc3)nc2n(C)c1=O
inactive: endpoint: mean survival time, dose: 12.5 mg/kg/injection, schedule: Q01DX005 (ip), vehicle: distilled water + Tween-80 93 % of control | endpoint: mean survival time, dose: 25.0 mg/kg/injection, schedule: Q01DX005 (ip), vehicle: distilled water + Tween-80 90 % of control | endpoint: mean survival time, dose: 50.0 mg/kg/injection, schedule: Q01DX005 (ip), vehicle: distilled water + Tween-80 90 % of control | endpoint: mean survival time, dose: 100.0 mg/kg/injection, schedule: Q01DX005 (ip), vehicle: distilled water + Tween-80 94 % of control | endpoint: mean survival time, dose: 200.0 mg/kg/injection, schedule: Q01DX005 (ip), vehicle: distilled water + Tween-80 90 % of control

CC(=O)OCC1C(OC(C)=O)CC2CCC1N2C#N (stereo not drawn)
inactive: endpoint: mean survival time, dose: 50.0 mg/kg/injection, schedule: Q04DX002 (ip), vehicle: Klucel (hydroxypropylcellulose) (HPC) 107 % of control | endpoint: mean survival time, dose: 100.0 mg/kg/injection, schedule: Q04DX002 (ip), vehicle: Klucel (hydroxypropylcellulose) (HPC) 96 % of control | endpoint: mean survival time, dose: 200.0 mg/kg/injection, schedule: Q04DX002 (ip), vehicle: Klucel (hydroxypropylcellulose) (HPC) 88 % of control and 89 % of control

N=C(Oc1ccccc1)C(Cl)(Cl)Cl
inactive: [4] 90 % of control | [1] 95 % of control | [3] 98 % of control

COC1CCC2=C(C1)C(=O)CC1c3ccccc3CN21 (stereo not drawn)
inactive: [2] 97 % of control

Cc1nc2c(nc1C)C(=O)C(N1CCOCC1)=CC2=O
inactive: endpoint: mean survival time, dose: 6.25 mg/kg/injection, schedule: Q04DX003 (ip), vehicle: saline 100 % of control | endpoint: mean survival time, dose: 12.5 mg/kg/injection, schedule: Q01DX001 (ip), vehicle: saline 87 % of control | endpoint: mean survival time, dose: 12.5 mg/kg/injection, schedule: Q04DX003 (ip), vehicle: saline 100 % of control | endpoint: mean survival time, dose: 25.0 mg/kg/injection, schedule: Q01DX001 (ip), vehicle: saline 107 % of control | endpoint: mean survival time, dose: 25.0 mg/kg/injection, schedule: Q04DX003 (ip), vehicle: saline 98 % of control | endpoint: mean survival time, dose: 35.0 mg/kg/injection, schedule: Q04DX003 (ip), vehicle: saline 88 % of control | endpoint: mean survival time, dose: 55.0 mg/kg/injection, schedule: Q04DX003 (ip), vehicle: saline 91 % of control | endpoint: mean survival time, dose: 80.0 mg/kg/injection, schedule: Q04DX003 (ip), vehicle: saline 86 % of control

O=C1C(O)=C(c2ccccc2)C(=O)C(O)=C1c1ccccc1
inactive: endpoint: mean survival time, dose: 3.12 mg/kg/injection, schedule: Q01DX009 (ip), vehicle: saline 96 % of control | endpoint: mean survival time, dose: 6.25 mg/kg/injection, schedule: Q01DX009 (ip), vehicle: saline 95 % of control | endpoint: mean survival time, dose: 12.5 mg/kg/injection, schedule: Q01DX009 (ip), vehicle: saline 97 % of control | endpoint: mean survival time, dose: 25.0 mg/kg/injection, schedule: Q01DX009 (ip), vehicle: saline 101 % of control | endpoint: mean survival time, dose: 50.0 mg/kg/injection, schedule: Q01DX009 (ip), vehicle: saline 108 % of control

CCCCCCCCCC[N+]1(C)CCC[N+](C)(CCCCCCCCCC)CC1 (stereo not drawn)
inactive: endpoint: mean survival time, dose: 12.5 mg/kg/injection, schedule: Q01DX001 (ip), vehicle: saline with Tween-80 95 % of control | endpoint: mean survival time, dose: 25.0 mg/kg/injection, schedule: Q01DX001 (ip), vehicle: saline with Tween-80 105 % of control

O=[Te]=O
inactive: endpoint: median survival time, dose: 3.12 mg/kg/injection, schedule: Q01DX009 (ip), vehicle: saline 100 % of control | endpoint: median survival time, dose: 6.25 mg/kg/injection, schedule: Q01DX009 (ip), vehicle: saline 98 % of control | endpoint: median survival time, dose: 10.0 mg/kg/injection, schedule: Q01DX009 (ip), vehicle: saline 101 % of control | endpoint: median survival time, dose: 12.5 mg/kg/injection, schedule: Q01DX009 (ip), vehicle: saline 100 % of control | endpoint: median survival time, dose: 20.0 mg/kg/injection, schedule: Q01DX009 (ip), vehicle: saline 97 % of control
